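Where inhibition never reached the appropriate level, the endpoint shown equals the highest concentration tested. Otherwise, values were interpolated linearly from a five-concentration, 48-hour dose response in 96-well plates. GI50 marks 50% less growth. TGI is the concentration that stops growth completely.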
Assays:
Assay in all cases: NCI tumour cell line growth inhibition, 48 h
[1] = tested on: UACC-62 melanoma
[2] = tested on: SW-620 colon
[3] = tested on: HCT-15 colon
[4] = tested on: M14 melanoma
[5] = tested on: UACC-257 melanoma
[6] = tested on: NCI-H460 lung
[7] = tested on: HS 578T breast
[8] = tested on: K-562 leukemia
[9] = tested on: SK-MEL-28 melanoma
[10] = tested on: RPMI-8226 leukemia

Row | SMILES | TGI [1] | TGI [2] | TGI [3] | TGI [4] | TGI [5] | TGI [6] | TGI [7] | TGI [8] | TGI [9] | TGI [10] | GI50 [1] | GI50 [3] | GI50 [4] | GI50 [6] | GI50 [7] | GI50 [10] | GI50 [8] | GI50 [9]
1 | COC(=O)NC1(NC(=O)OC)NC(=O)c2ccccc2N1 | > 100 µM | > 100 µM | > 100 µM | > 100 µM | > 100 µM | > 100 µM | > 100 µM | > 100 µM | > 100 µM | – | – | – | – | – | – | – | – | –
2 | CCOC(=O)c1ccc(N=Cc2ccc(N(CCC#N)S(=O)(=O)c3ccccc3)cc2C)cc1 | > 100 µM | > 100 µM | > 100 µM | > 100 µM | > 100 µM | – | – | > 100 µM | > 100 µM | > 100 µM | – | – | – | – | – | – | – | –
3 | Cc1nc(-n2nc(-c3ccccc3)cc2-c2ccccc2)sc1C(=O)CC(=O)C(=O)Nc1ccc(Cl)c(Cl)c1 | > 100 µM | > 100 µM | > 100 µM | > 100 µM | > 100 µM | > 100 µM | – | > 100 µM | – | > 100 µM | – | – | – | – | – | – | – | –
4 | CNc1c2ccccc2nc2occ(Cl)c12 | > 100 µM | – | > 100 µM | > 100 µM | – | 72.1 µM | 79.3 µM | > 100 µM | > 100 µM | 39.8 µM | 33.3 µM | 33.8 µM | 37.2 µM | 21.8 µM | 20.9 µM | 16 µM | 26.4 µM | 48.7 µM
5 | C=C1C(=O)OC2CC1C(OC(=O)/C=C/c1ccccc1)C/C(C)=C/CC/C(C)=C/CCC2(C)O (stereo not drawn) | 4.51 µM | – | 2.67 µM | 3.14 µM | 3.79 µM | 2.74 µM | 5.94 µM | > 100 µM | 15.6 µM | – | – | – | – | – | – | – | – | –
6 | COc1ccc2nc3cc(Cl)ccc3c(Sc3ccc(N)cc3)c2c1 | 17.8 µM | 12.8 µM | 20.1 µM | 22 µM | 26.1 µM | 21.1 µM | – | 13.8 µM | 29.6 µM | – | – | – | – | – | – | – | – | –
7 | CC(=O)/C=C1\CC(=O)N(C)c2ccccc2N1 | > 100 µM | > 100 µM | – | > 100 µM | – | > 100 µM | – | > 100 µM | > 100 µM | – | – | – | – | – | – | – | – | –
8 | COc1ccc2c(c1OC)C(=O)C2 | > 100 µM | > 100 µM | > 100 µM | > 100 µM | > 100 µM | > 100 µM | – | – | > 100 µM | > 100 µM | – | – | – | – | – | – | – | –
9 | Cn1c(=O)nc2n(-c3ccc(Br)cc3)c3ccccc3nc-2c1=O | 3.01 µM | 6.57 µM | 14.7 µM | 15.5 µM | 6.79 µM | 11.9 µM | – | 24 µM | – | 28.8 µM | – | – | – | – | – | – | – | –
10 | Cc1nc2ccccc2c(=O)n1/N=C(\N=Nc1ccc(Cl)cc1)c1cccc(-c2ccco2)c1 | 87 µM | > 100 µM | > 100 µM | > 100 µM | – | > 100 µM | – | > 100 µM | 58.7 µM | > 100 µM | – | – | – | – | – | – | – | –
11 | Nc1n[n+]([O-])c2ccc(Cl)cc2[n+]1[O-] | – | 61.2 µM | 58.9 µM | 40.4 µM | 54.3 µM | – | > 100 µM | > 100 µM | 67.7 µM | > 100 µM | – | – | – | – | – | – | – | –
12 | COc1ccccc1/C=C1\C(=O)N(C(=O)Cc2ccccc2)N=C1C | – | > 100 µM | > 100 µM | > 100 µM | > 100 µM | > 100 µM | – | > 100 µM | > 100 µM | > 100 µM | – | – | – | – | – | – | – | –

— PubChem BioAssay (NCI)
